7 compounds from PubChem BioAssay (NCI) can be followed below.

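Five compound concentrations were applied to cells in 96-well plates for 48 hours; endpoints were derived by simple linear interpolation of the resulting dose-response curve. Abbreviation: GI50, concentration required for 50% inhibition of growth. TGI: concentration producing complete growth inhibition.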

Some test systems named below: UACC-257 melanoma; CAKI-1 renal; NCI-H522 lung; OVCAR-4 ovarian; T-47D breast; OVCAR-5 ovarian; SNB-19 CNS; ACHN renal; K-562 leukemia; SK-MEL-2 melanoma.
Holding throughout (assay): NCI anticancer screen, dose series, 48 h

`CCCCON(OC(=O)c1ccc2ccccc2c1)C(=O)c1ccccc1`: the GI50 was above 100 µM in the test with UACC-257 melanoma; above 100 µM in the test on CAKI-1 renal; 63 µM in the test with NCI-H522 lung; above 100 µM in the test with OVCAR-4 ovarian; above 100 µM in the test with T-47D breast; above 100 µM with OVCAR-5 ovarian. Further, the GI50 in the test with SNB-19 CNS was above 100 µM; with ACHN renal it was above 100 µM; with K-562 leukemia it was 41.7 µM; with SK-MEL-2 melanoma, above 100 µM. The TGI with UACC-257 melanoma, in the test on CAKI-1 renal, in the test with NCI-H522 lung, with OVCAR-4 ovarian, in the test on T-47D breast and in the test on OVCAR-5 ovarian was above 100 µM each time. In addition, the TGI in the test with SNB-19 CNS, in the test with ACHN renal, with K-562 leukemia and with SK-MEL-2 melanoma was above 100 µM throughout.

`Cc1c[n+](=O)c2ccccc2n1[O-]`: the TGI with UACC-257 melanoma, in the test on CAKI-1 renal, with NCI-H522 lung, in the test with OVCAR-4 ovarian, in the test on T-47D breast and in the test with OVCAR-5 ovarian was above 100 µM each time. For the same compound, the TGI with SNB-19 CNS, in the test on ACHN renal, in the test with K-562 leukemia and in the test with SK-MEL-2 melanoma was above 100 µM each time.

Take `C[C@]12CC[C@@H]3c4ccc(OC(=O)N(CCCl)CCCl)cc4CC[C@H]3[C@@H]1CC[C@@H]2O`: the GI50 in the test with UACC-257 melanoma is 3.81 µM; in the test on CAKI-1 renal, 2.44 µM; in the test on NCI-H522 lung, 2.53 µM; in the test on OVCAR-4 ovarian, 4.36 µM; in the test with T-47D breast, 4.83 µM; in the test on OVCAR-5 ovarian it was 9.98 µM. Also, the GI50 is 7.04 µM with SNB-19 CNS, 3.71 µM in the test with ACHN renal and 4.31 µM with SK-MEL-2 melanoma. For the same compound, the TGI with UACC-257 melanoma is 15 µM; in the test on NCI-H522 lung, 15.2 µM; in the test with OVCAR-4 ovarian, 39.5 µM; in the test on T-47D breast it was 40.7 µM; in the test with ACHN renal, above 68.5 µM; in the test on K-562 leukemia it was above 47.5 µM. The TGI in the test on SK-MEL-2 melanoma amounted to 14.8 µM.

In the case of `COc1ncnc2c(-c3ccccc3)cn(COCc3ccccc3)c12`, the GI50 in the test on UACC-257 melanoma is 2.74 µM; with CAKI-1 renal, 3.02 µM; in the test with NCI-H522 lung it was 2.09 µM; in the test on OVCAR-4 ovarian, 2.26 µM; in the test with T-47D breast it was 3.04 µM; in the test on OVCAR-5 ovarian, 47.8 µM. For the same compound, the GI50 in the test on SNB-19 CNS is 6.53 µM; in the test with ACHN renal, 3.82 µM; in the test with K-562 leukemia it was 3.32 µM; in the test with SK-MEL-2 melanoma it was 2.08 µM. Also, the TGI is 9.31 µM with UACC-257 melanoma; above 100 µM in the test on CAKI-1 renal; 6.17 µM with NCI-H522 lung; 9.5 µM in the test with OVCAR-4 ovarian; 9.84 µM with T-47D breast; above 100 µM in the test on OVCAR-5 ovarian. In addition, the TGI was above 100 µM with SNB-19 CNS, above 100 µM in the test on ACHN renal, above 100 µM with K-562 leukemia and 4.99 µM with SK-MEL-2 melanoma.

With `Oc1c(-c2nnc(-c3ccccc3Cl)o2)sc2nnc(-c3ccccc3)c(-c3ccccc3)c12`, the GI50 in the test with UACC-257 melanoma is 8.09 µM; with CAKI-1 renal it was 0.501 µM; in the test with NCI-H522 lung it was 3.59 µM; with OVCAR-4 ovarian, 4.49 µM; in the test with T-47D breast, 4.78 µM; in the test with OVCAR-5 ovarian it was 7.48 µM. In addition, the GI50 with SNB-19 CNS is 4.37 µM; in the test with ACHN renal, 3.46 µM; in the test with K-562 leukemia it was 3.28 µM; in the test with SK-MEL-2 melanoma it was 3.23 µM. In addition, the TGI in the test on UACC-257 melanoma is 62.7 µM; with CAKI-1 renal, 24.6 µM; in the test on NCI-H522 lung it was 23.5 µM; in the test with OVCAR-4 ovarian, above 100 µM; in the test with T-47D breast, above 100 µM; with OVCAR-5 ovarian it was above 100 µM. For the same compound, the TGI in the test with SNB-19 CNS was above 100 µM; in the test with ACHN renal, 89.7 µM; in the test on K-562 leukemia it was above 100 µM; in the test with SK-MEL-2 melanoma, 15.7 µM.

In the case of `N#Cc1ccc(OCc2nc(N)nc(N)c2-c2ccc(Cl)c(Cl)c2)cc1`, the GI50 in the test on UACC-257 melanoma is 0.593 µM; in the test on CAKI-1 renal, 3.09 µM; in the test with NCI-H522 lung, 2.97 µM; with OVCAR-4 ovarian, 6.43 µM; in the test with T-47D breast it was 9.64 µM; in the test with OVCAR-5 ovarian, 2.38 µM. For the same compound, the GI50 with SNB-19 CNS was 2.79 µM; in the test on ACHN renal, 0.8 µM; with K-562 leukemia, 0.359 µM; with SK-MEL-2 melanoma, 3.55 µM. Besides, the TGI in the test on UACC-257 melanoma was 37.2 µM; in the test on CAKI-1 renal, above 100 µM; in the test on NCI-H522 lung it was 19.9 µM; in the test with OVCAR-4 ovarian, above 100 µM; in the test with T-47D breast it was above 100 µM; with OVCAR-5 ovarian, above 100 µM. Moreover, the TGI in the test on SNB-19 CNS is above 100 µM; in the test on ACHN renal, above 100 µM; in the test with K-562 leukemia, above 100 µM; in the test with SK-MEL-2 melanoma, 22 µM.

With `O=c1[nH]c(=O)c2cn[nH]c2[nH]1`, the GI50 in the test on UACC-257 melanoma, in the test on CAKI-1 renal, in the test on NCI-H522 lung, in the test with OVCAR-4 ovarian, with T-47D breast and in the test on OVCAR-5 ovarian was above 100 µM each time. Moreover, the GI50 with SNB-19 CNS, in the test on ACHN renal, in the test on K-562 leukemia and with SK-MEL-2 melanoma was above 100 µM in each case. For the same compound, the TGI in the test with UACC-257 melanoma, in the test with CAKI-1 renal, in the test on NCI-H522 lung, with OVCAR-4 ovarian, in the test with T-47D breast and in the test with OVCAR-5 ovarian was above 100 µM throughout. The TGI with SNB-19 CNS, in the test with ACHN renal, in the test with K-562 leukemia and in the test with SK-MEL-2 melanoma was above 100 µM each time.
